Data published in patent publication US12612360B2 (Sanofi, priority 2020, dated 2026).

Target: T1, ERα (Homo sapiens, UniProt P03372)
T1 construct: host or cells: MCF7
T1 sequence (P03372 1-595): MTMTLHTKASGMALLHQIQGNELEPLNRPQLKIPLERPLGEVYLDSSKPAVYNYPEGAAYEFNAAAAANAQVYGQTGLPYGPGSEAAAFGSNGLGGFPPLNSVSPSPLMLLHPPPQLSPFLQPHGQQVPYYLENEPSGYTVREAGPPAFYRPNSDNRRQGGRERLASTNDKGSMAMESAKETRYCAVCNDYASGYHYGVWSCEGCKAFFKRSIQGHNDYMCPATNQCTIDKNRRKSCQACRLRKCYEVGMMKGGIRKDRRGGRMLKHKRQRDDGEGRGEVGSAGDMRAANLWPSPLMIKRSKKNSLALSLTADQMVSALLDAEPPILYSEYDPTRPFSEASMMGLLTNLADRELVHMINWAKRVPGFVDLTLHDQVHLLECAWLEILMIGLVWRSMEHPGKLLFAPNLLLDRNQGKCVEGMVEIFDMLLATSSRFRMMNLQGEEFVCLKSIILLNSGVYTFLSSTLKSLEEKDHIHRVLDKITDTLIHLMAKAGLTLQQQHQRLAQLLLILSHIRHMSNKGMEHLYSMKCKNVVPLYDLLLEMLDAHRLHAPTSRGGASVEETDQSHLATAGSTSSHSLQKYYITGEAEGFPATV
Assay: Estrogen receptor degradation activity: breast cancer cell ERα in cell western assay (MCF7 cells)
Assay type: cell-based
Details: for % Degradation At 0.3 μM: 4 hours, relative to fulvestrant 0.1 μM positive control; for DC50: 4 hours post compound addition, concentration which degrades 50% of the estrogen receptor, read-out: Degradation IC50
Procedure: Test: Estrogen Receptor Degradation Activity Said test involves measuring the in vitro degradation activity of the compounds of the Table 1a. The measurements of the degradation activities were made using a breast cancer cell ERα in cell western assay as described hereunder. MCF7 cells (ATCC) were seeded in 384 wells microplate (collagen coated) at a concentration of 10000 cells/30 μL per well in red phenol free MEM alpha medium (invitrogen) containing 5% charcoal dextran striped FBS. The following day, 9 points serial 1:5 dilution of each compound was added to the cells in 2.5 μL at final concentrations ranging from […] (in table 2), or 0.1 μM for fulvestrant (using as positive control). At 4 hours post compound addition the cells were fixed by adding 25 μL of formalin (final concentration 5% formalin containing 0.1% triton) for 10 minutes at room temperature and then washed twice with PBS. Then, 50 μL of LI-COR blocking buffer containing 0.1% Triton was added to plate for 30 minutes at room temperature. LI-COR blocking buffer was removed and cells were incubated overnight at cold room with 50 μL anti-ER rabbit monoclonal antibody (Thermo scientific MA1-39540) diluted at 1:1000 in LI-COR blocking buffer containing 0.1% tween-20. Wells which were treated with blocking buffer but no antibody were used as background control. Wells were washed twice with PBS (0.1% tween-20) and incubated at 37° C. for 60 minutes in LI-COR (0.1% tween-20) containing goat anti-rabbit antibody Alexa 488 (1:1000) and Syto-64 a DNA dye (2 μM final concentration). Cells were then washed 3 times in PBS and scanned in ACUMEN explorer (TTP-Labtech). Integrated intensities in the green fluorescence and red fluorescence were measured to determine the levels of ERα and DNA respectively. The degradation activity with respect to estrogen receptors in this test is given by the concentration which degrades 50% of the estrogen receptor (or IC50) in nM. […] DMSO−fulvestrant)).

Structure (SMILES) | % Degradation At 0.3 μM [%] | DC50 [nM]
O=C(O)c1ccc2c(c1)CCCC(c1ccc(Cl)cc1C(F)(F)F)=C2c1ccc(C=C2CN(CCCF)C2)cc1 [Example 37, 8-(4-chloro-2-(trifluoromethyl)phenyl)-9-(4-((1-(3-fluoropropyl)azetidin-3-ylidene)methyl)phenyl)-6,7-dihydro-5H-benzo[7]annulene-3-carboxylic acid] | 87 | 0.4
Cc1cc(F)cc(C)c1C1=C(c2ccc(C=C3CN(CCCF)C3)cc2)c2ccc(C(=O)O)cc2CCC1 [Example 90, 8-(4-fluoro-2,6-dimethylphenyl)-9-(4-((1-(3-fluoropropyl)azetidin-3-ylidene)methyl)phenyl)-6,7-dihydro-5H-benzo[7]annulene-3-carboxylic acid] | 93 | 0.2
CC1(C)CCCC(C2=C(c3ccc(C=C4CN(CCCF)C4)cc3)c3ccc(C(=O)O)cc3CCC2)C1 (single isomer, unassigned) [Example 171, 8-(3,3-dimethylcyclohexyl)-9-(4-((1-(3-fluoropropyl)azetidin-3-ylidene)methyl)phenyl)-6,7-dihydro-5H-benzo[7]annulene-3-carboxylic acid] | 88 | 0.4
O=C(O)c1ccc2c(c1)CCCC(C1CCOCC1)=C2c1ccc(C=C2CN(CCCF)C2)cc1 [Example 60, 9-(4-((1-(3-Fluoropropyl)azetidin-3-ylidene)methyl)phenyl)-8-(tetrahydro-2H-pyran-4-yl)-6,7-dihydro-5H-benzo[7]annulene-3-carboxylic acid] | 91 | 2.3
O=C(O)c1ccc2c(c1)CCCC(c1cccc(C(F)(F)F)c1F)=C2c1ccc(C=C2CN(CCCF)C2)cc1 [Example 56, 8-(2-fluoro-3-(trifluoromethyl)phenyl)-9-(4-((1-(3-fluoropropyl)azetidin-3-ylidene)methyl)phenyl)-6,7-dihydro-5H-benzo[7]annulene-3-carboxylic acid] | 93 | 0.2
Cc1cccc(C2=C(c3ccc(C=C4CN(CCCF)C4)cc3)c3ccc(C(=O)O)cc3CCC2)c1C [Example 94, 8-(2,3-dimethylphenyl)-9-(4-((1-(3-fluoropropyl)azetidin-3-ylidene)methyl)phenyl)-6,7-dihydro-5H-benzo[7]annulene-3-carboxylic acid] | 96 | 0.2
Cl.O=C(O)c1ccc2c(c1)CCCC(c1ccc(C(F)(F)F)cc1)=C2c1ccc(C=C2CN(CCCF)C2)cc1 [Example 185, 9-(4-((1-(3-fluoropropyl)azetidin-3-ylidene)methyl)phenyl)-8-(4-(trifluoromethyl)phenyl)-6,7-dihydro-5H-benzo[7]annulene-3-carboxylic acid hydrochloride] | 90 | 0.5
Cc1cc(F)ccc1C1=C(c2ccc(C=C3CN(CCCF)C3)c(C(F)(F)F)c2)c2ccc(C(=O)O)cc2CCC1 [Example 157, 8-(4-fluoro-2-methylphenyl)-9-(4-((1-(3-fluoropropyl)azetidin-3-ylidene)methyl)-3-(trifluoromethyl)phenyl)-6,7-dihydro-5H-benzo[7]annulene-3-carboxylic acid] | 88 | 3.1
Cl.O=C(O)c1ccc2c(c1)CCCC(c1ccccc1C(F)(F)F)=C2c1ccc(C=C2CN(CCCF)C2)cc1 [Example 183, 9-(4-((1-(3-fluoropropyl)azetidin-3-ylidene)methyl)phenyl)-8-(2-(trifluoromethyl)phenyl)-6,7-dihydro-5H-benzo[7]annulene-3-carboxylic acid hydrochloride] | 92 | 0.4
O=C(O)c1ccc2c(c1)CCCC(CC1CCC1)=C2c1ccc(C=C2CN(CCCF)C2)cc1 [Example 169, 8-(cyclobutylmethyl)-9-(4-((1-(3-fluoropropyl)azetidin-3-ylidene)methyl)phenyl)-6,7-dihydro-5H-benzo[7]annulene-3-carboxylic acid] | 90 | 0.3
O=C(O)c1ccc2c(c1)CCCC(c1ccc(Cl)cc1C(F)(F)F)=C2c1ccc(C=C2CN(CCC(F)F)C2)cc1 [Example 128, 8-(4-chloro-2-(trifluoromethyl)phenyl)-9-(4-((1-(3,3-difluoropropyl)azetidin-3-ylidene)methyl)phenyl)-6,7-dihydro-5H-benzo[7]annulene-3-carboxylic acid] | 93 | 1.1
Cc1cccc(C)c1C1=C(c2ccc(C=C3CN(CCCF)C3)cc2)c2ccc(C(=O)O)cc2CCC1 [Example 97, 8-(2,6-dimethylphenyl)-9-(4-((1-(3-fluoropropyl)azetidin-3-ylidene)methyl)phenyl)-6,7-dihydro-5H-benzo[7]annulene-3-carboxylic acid] | 95 | 0.2
O=C(O)c1ccc2c(c1)CCCC(c1c(F)cc(C(F)(F)F)cc1F)=C2c1ccc(C=C2CN(CCCF)C2)cc1 [Example 21, 8-(2,6-difluoro-4-(trifluoromethyl)phenyl)-9-(4-((1-(3-fluoropropyl)azetidin-3-ylidene)methyl)phenyl)-6,7-dihydro-5H-benzo[7]annulene-3-carboxylic acid] | 93 | 0.3
O=C([O-])c1ccc2c(c1)CCCC(c1ccc(F)cc1F)=C2c1ccc(C=C2CN(CCCF)C2)cc1F.[Na+] [Example 142, Sodium 8-(2,4-difluorophenyl)-9-(2-fluoro-4-((1-(3-fluoropropyl)azetidin-3-ylidene)methyl)phenyl)-6,7-dihydro-5H-benzo[7]annulene-3-carboxylate] | 96 | 0.3
Cc1cc(F)ccc1C1=C(c2cc(C)c(C=C3CN(CCCF)C3)c(F)c2)c2ccc(C(=O)O)cc2CCC1 [Example 28, 8-(4-fluoro-2-methylphenyl)-9-(3-fluoro-4-((1-(3-fluoropropyl)azetidin-3-ylidene)methyl)-5-methylphenyl)-6,7-dihydro-5H-benzo[7]annulene-3-carboxylic acid] | 90 | 1
Cc1cc(F)ccc1C1=C(c2ccc(C=C3CN(CCCF)C3)c(F)c2C)c2ccc(C(=O)O)cc2CCC1 [Example 30, 8-(4-fluoro-2-methylphenyl)-9-(3-fluoro-4-((1-(3-fluoropropyl)azetidin-3-ylidene)methyl)-2-methylphenyl)-6,7-dihydro-5H-benzo[7]annulene-3-carboxylic acid] | 91 | 1.8
Cc1cc(F)ccc1C1=C(c2ccc(C=C3CN(CCCF)C3)cc2C#N)c2ccc(C(=O)O)cc2CCC1 [Example 139, 9-(2-cyano-4-((1-(3-fluoropropyl)azetidin-3-ylidene)methyl)phenyl)-8-(4-fluoro-2-methylphenyl)-6,7-dihydro-5H-benzo[7]annulene-3-carboxylic acid] | 97 | 3.1
Cc1ccc(C2=C(c3ccc(C=C4CN(CCCF)C4)cc3)c3ccc(C(=O)O)cc3CCC2)cc1C(F)(F)F [Example 144, 9-(4-((1-(3-fluoropropyl)azetidin-3-ylidene)methyl)phenyl)-8-(4-methyl-3-(trifluoromethyl)phenyl)-6,7-dihydro-5H-benzo[7]annulene-3-carboxylic acid] | 90 | 0.4
